The subject of this assay is xCT. Nature of the assay: Western blot of xCT in THP-1-derived macrophages. Type of assay: cell-based, human. The note with it: 5 mM NAC 1 h pretreatment, then 100 μg/ml Virofree 6 or 24 h. The method, then: The cells were exposed to different treatments for the indicated time, the cells were lysed on ice with lysis buffer. The cell lysate was cleared by centrifugation at 12,000 g for 10 min. The lysate was resolved by sodium dodecyl sulfate-polyacrylamide gel electrophoresis, and the proteins were transferred to a polyvinylidene fluoride membrane. After blocking with 5% non-fat dry milk in Tris-buffered saline, the membrane was incubated overnight with the desired primary antibody (FPN (Novus Biologicals, NBP1-21502, 1:1000), FTH-1 (Cell signaling, 4393S, 1:1000), GPX4 (Abcam, ab125066, 1:1000), TFRC (Cell signaling, 13208s, 1:1000), xCT (Cell signaling, 17681s, 1:1000), GAPDH (GeneTex, GTX100118, 1:10,000), α-SMA (Abcam, ab5694, 1:1000), Fibronectin (Santa Cruz, sc-9068, 1:1000), N-cadherin (BD, 610920, 1:1000), β-actin (GeneTex, GTX109639, 1:10000)). Subsequently, the membrane was incubated with an appropriate secondary antibody. Immunoreactive bands were visualized using the enhanced chemiluminescence (ECL) method and captured by a Luminescence Imaging system (LAS 4000™, Fuji Photo Film Co. Ltd).

Molecules are shown by their SMILES.

In the case of `CC(=O)N[C@@H](CS)C(=O)O` [N-acetyl cysteine], the “xCT expression mediated by Virofree after NAC pretreatment” value is on record as “significantly decrease”.

For the origin of these results see patent publication US12150971B2, “Method and composition for preventing and treating Covid-19 and long Covid” (priority 2021, dated 2024).
